Test results published in paper PMC4309438, “Capacitance-modulated transistor detects odorant binding protein chiral interactions” (Nature Communications, 2015).
Read-outs that look alike come from different tables or passages of the source.

Columns and labels:
pOBP-mutant-F88W = target: T1, pOBP-mutant-F88W (Sus scrofa, UniProt P81245, F88W); assay: Competitive fluorescent binding assay of pOBP in solution (1-AMA probe); parameters: species or system porcine; settings: pOBP and 1-AMA probe at 1 μM, 10 mM phosphate buffer pH 7.4, room temperature, calculated from IC50, read-out: dissociation constant KSol
T1 construct: His6 (N); made in house; host or cells: Escherichia coli BL21(DE3), pET5b vector
T1 sequence (P81245 1-157 F88W): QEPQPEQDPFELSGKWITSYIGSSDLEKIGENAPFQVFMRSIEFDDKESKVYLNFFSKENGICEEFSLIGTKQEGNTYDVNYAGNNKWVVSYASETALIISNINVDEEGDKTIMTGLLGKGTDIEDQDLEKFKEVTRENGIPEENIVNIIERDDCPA
Procedure: Emission fluorescence spectra were recorded using a Perkin Elmer LS55 instrument at room temperature, with a 1 cm light path quartz cuvette and 5 nm slits for both excitation and emission. The affinity of binding of pOBP was measured using the fluorescence probe 1-AMA as previously reported. About 1 μM pOBP-F88W solution in 10 mM phosphate buffer, pH 7.4, was titrated with aliquots of 1 mM 1-AMA in methanol to final concentrations of 0.25–8 μM. The probe was excited at 375 nm and the fluorescence spectra were recorded between 400 to 570 nm, monitoring the signals between 480 and 490 nm. The dissociation constant (K1-AMA) for the OBP/1-AMA complex was calculated using the equation y=(Bmax × x)/(K1-AMA+x), where y is the degree of saturation, Bmax is the number of maximum binding sites, and K1-AMA is the dissociation constant. The calculation was run using the software Sigma Plot and a single binding site was considered for the OBP.
The affinity of pOBP-F88W towards S-(+)-carvone and R-(−)-carvone and 2-phenylethanol was measured in competitive binding assays, using both pOBP and probe at 1 μM as the final concentration. The ligand solutions, with concentrations ranging from 2 to 20 μM, were prepared in 10 mM phosphate buffer pH 7.4 and used for the binding experiments. Dissociation constants of competitors were calculated from the corresponding IC50 values, using the equation: KSol=[IC50]/1+[1-AMA]/K1-AMA, where [1-AMA] is the free concentration of the fluorescence probe and K1-AMA is the dissociation constant of the complex OBP/1-AMA.

[1] = target: T2, pOBP-SAM (pOBP-F88W immobilized on gold gate) (Sus scrofa, UniProt P81245, F88W); assay: WGOFET with pOBP-SAM gate: binding curves from ΔI/I electronic response; parameters: species or system porcine; settings: for α (Hill degree of cooperativity): Hill's isotherm fit of binding curve of Fig. 5b; for ΔC/C, fractional change of pOBP-SAM capacitance (measured chiral response): at saturation, extracted from source-drain current (Fig. 8a); for plateau response at saturation (ΔI/I): best-fit parameter of binding curve of Fig. 5b, IDS at VG=−0.5 V; for WGOFET response at saturation: binding curves of Fig. 5b; for maximum fractional decrease of IDS: control experiment of Fig. 6: same pOBP-SAM gate exposed alternately to the two enantiomers, rinsed between exposures; for Kd: pOBP-SAM gate, fit of ΔI/I binding curve of Fig. 5b
T2 construct: His6 (N); made in house; host or cells: Escherichia coli BL21(DE3), pET5b vector
T2 sequence (P81245 1-157 F88W): T1 sequence (P81245 1-157 F88W)
Description: where Ci≈COBP is the capacitance per unit area. In Fig. 5a, the pOBP-WGOFET transfer-characteristics (IDS versus VG at VDS=−0.5 V) are reported for a device gated with a pristine pOBP-SAM (baseline, red curve) along with the traces measured after exposing the pOBP-SAM to progressively higher concentrations of (S)-(+)carvone (signal, black curves). Apparently, a significant degree of current decrease can be measured even at very low ligand concentrations. In the Supplementary Fig. 8, the gate leakage currents (IG) for the data of Fig. 5a are reported for comparison. […] From the transfer curve the COBP and μFET product, as well as the VT values are extracted. μFET can be as high as (1.1±0.2) × 10^−1 cm^2 V^−1 s^−1, showing a very good level of performance for the pOBP-SAM WGOFET[37]. The fractional current decrease upon binding was evaluated from the transfer curves as ΔI/I=[(I−I0)I0^−1] with I and I0 being IDS values at VG=−0.5 V for the signal and for the base-line curves, respectively. ΔI/I was taken as the WGOFET electronic response as this normalizes the device-to-device variation in FET biosensors, resulting in high response reproducibility.
The fitting of the (S)-(+)-carvone binding curve (red solid line in Fig. 5b) is performed using Langmuir’s isotherm Y=bMAX(X/(KFET+X)), where Y is the ΔI/I electronic response proportional, through bmax, to the degree of saturation. X is the ligand concentration and KFET is the dissociation constant. The fitting of the (R)-(−)-carvone (magenta solid curve in Fig. 5b) was calculated using Hill’s binding model, also used to model the data relevant to the 2-phenylethanol (blue curve). The Hill’s equation is Y=bMAX(X^α/(KFET+X^α)), with α giving the degree of cooperativity (α=1 for non-cooperative, α>1 and α<1 for positive and negative cooperativity, respectively). The fit of the S-(+)-carvone data to a Langmuir’s non-cooperative binding isotherm[39] returns a dissociation constant KFET^+=0.81±0.05 nM and a plateau response at a saturation of (ΔI/I)^+=0.62±0.01, while the limit-of-detection is 50 pM and the limit-of-quantification is 150 pM. The detection of carvone enantiomers here performed is about 6 orders of magnitude better than the determinations performed with a back-gate device. A comparison between the two systems is not straightforward as they hold different device structures and different recognition elements. However, it is a fact that in the WGOFET a direct interaction between the bio-recognition element layer and an electronic interface, is created. The R-(−)-carvone data could only be accounted for by a Hill’s binding isotherm[38] that, through the α coefficient, models the extent of cooperativity of a given binding site. […] The fitting of the S-(+)-carvone to the Hill’s isotherm, performed as control, returns a KFET=0.4±0.2 nM and an α=1.1±0.1, consistent with the Langmuir’s fit. The errors are taken as 1 s.d., as for all data presented.
PBTTT-C14 was dissolved (7 mg ml^−1) in a mixture of 1,2-dichlorobenzene and chloroform (9:1). Gold source (S) and drain (D) interdigitated electrodes were photo-lithographically defined on a flexible substrate. The distance between two differently biased fingers is the channel length (L), while the perimeter of each set of equipotential fingers is the channel width (W); they are 5 μm and 10^4 μm, respectively. The substrate with patterned electrodes was spin coated with a PBTTT-C14 solution at 7,000 r.p.m. for 60 s and annealed at 120 °C for 10 min. A gold plate with an area of ~3 10^−2 cm^2 served as the gate (G) electrode. The SAM functionalizing protocol[52] involved a 50 mM solution of 3-mercaptopropionic acid (3MPA) in ethanol containing 5% acetic acid. N2 was bubbled through the 3MPA solution for at least 10 min to remove dissolved oxygen. The gold electrodes were immersed into the 3MPA solution and kept in the dark under N2 for 18 h at 22 °C. […]

human = system: human; parameters: method as in earlier work; settings: perceived as spearmint or caraway odours; cited from earlier work
[2] = read-out: dissociation constant KFET (Hill's isotherm fit)

| SMILES | Kd (pOBP-mutant-F88W) [nM] | α (Hill degree of cooperativity) [1] | ΔC/C, fractional change of pOBP-SAM capacitance (measured chiral response) [1] | plateau response at saturation (ΔI/I) [1] | WGOFET response at saturation [1] [%] | maximum fractional decrease of IDS [1] | Kd [1, 2] [nM] | human threshold for detection (odour) (human) [nM] | limit-of-detection ([1]; pOBP-SAM WGOFET) [pM] | limit-of-quantification ([1]; pOBP-SAM WGOFET) [pM] | Kd ([1]; three devices, read-out: dissociation constant KFET (Langmuir's isotherm fit)) [nM] |
| --- | --- | --- | --- | --- | --- | --- | --- | --- | --- | --- | --- |
| C=C(C)[C@@H]1CC=C(C)C(=O)C1 [(R)-(−)-carvone] | 1220 ± 50 | 0.5±0.1 | −0.17 | 0.17±0.02 | < 20 | much higher response at saturation | 20 ± 20 | 30 |  |  |  |
| OCCc1ccccc1 [2-phenylethanol] | ~40000 | 0.3±0.1 |  |  |  |  | 700 ± 330 |  |  |  |  |
| C=C(C)[C@H]1CC=C(C)C(=O)C1 [(S)-(+)-carvone] | 500 ± 10 | 1.1±0.1 | −0.485 | 0.62±0.01 | > 60 | ~ 60% | 0.4 ± 0.2 | 420 | 50 | 150 | 0.81 ± 0.05 |
